{"source": "patent US20080009416A1", "about": "“THIAZOLIUM COMPOUNDS AND USES THEREOF” (Mycosol, Inc., priority 2004, published 2008)", "key": {"male Lewis rats": {"tested_on": "male Lewis rats", "conditions": "intrapleural with carrageenan, 4 hours", "protocol": "Acute Anti-Inflammatory Activity in the 4HR Carrageenan Pleurisy Assay in Rats\nThe Acute Local Carrageenan Pleuritis Assay in Rats is an in vivo model to determine local acute anti-inflammatory activity of compounds based on inhibition of edema formation and neutrophil mobilization into the pleural cavity. In this assay, male Lewis rats of approximately 200 gms were utilized. A carrageenan solution (400 μg/ml) was prepared in water. The experimental compounds were mixed into the carrageenan solution. The carrageenan +/− compounds was injected intrapleurally 0.25 cc/rat. The rats were sacrificed four hours later. The pleural cavity was opened and measured and the exudate extracted. The pleural cavity was washed with 5 cc EDTA solution to capture pleural cells. The total WBCs in the wash were counted and recording. Next the compound inhibition of exudate volume and inflammatory cell influx wash determined. Every experiment included a positive (prednisolone) and negative control group."}, "Phytophthora infestans": {"tested_on": "Phytophthora infestans", "type": "cell-based", "conditions": "Phytophthora infestans (Tomato); 18° C., 7 days; growth reduced by at least 90% vs control, OD 405 nm"}, "Cochliobolus mijabeanus": {"tested_on": "Cochliobolus mijabeanus", "experiment": "Anti-Fungal Activity in Plant Relevant Molds In Vitro Microtitre Test", "type": "cell-based", "conditions": "Cochliobolus mijabeanus (Corn); 18° C., 7 days; growth reduced by at least 90% vs control, OD 405 nm", "experimental": "(§1) Compounds III, IV and V were prepared and were subjected to Anti-Fungal Activity in Plant Relevant Molds In Vitro Microtitre Tests.\n(§2) A stock solution of each compound was prepared in DMSO at a concentration of 10,000 ppm a.i. Further dilutions were prepared with water. The test was conducted at the following concentrations: 125, 31, 8, […], 0.5 and 0.125 ppm a.i. Spore suspensions of the fungi were prepared. The test was conducted in microtiter plates and for each fungus and each concentration, 3 wells were prepared. Incubation of the inoculated plates was carried out at 18° C. for 7 days. After this time, the optical density of the mycelium developed in each well was measured at 405 nm.\n(§3) The data produced allowed an assessment of the IC 90 value (the concentration at which the fungal growth was reduced by at least 90% compared to the control)."}, "Botrytis cinerea": {"tested_on": "Botrytis cinerea", "experiment": "Anti-Fungal Activity in Plant Relevant Molds In Vitro Microtitre Test", "type": "cell-based", "conditions": "Botrytis cinerea (Vegetable); 18° C., 7 days; growth reduced by at least 90% vs control, OD 405 nm", "experimental": "as §1, §2, §3"}, "Alternaria solani": {"tested_on": "Alternaria solani", "experiment": "Anti-Fungal Activity in Plant Relevant Molds In Vitro Microtitre Test", "type": "cell-based", "conditions": "Alternaria solani (Potato); 18° C., 7 days; growth reduced by at least 90% vs control, OD 405 nm", "experimental": "as §1, §2, §3"}, "Pyrenophora teres": {"tested_on": "Pyrenophora teres", "experiment": "Anti-Fungal Activity in Plant Relevant Molds In Vitro Microtitre Test", "type": "cell-based", "conditions": "Pyrenophora teres (Barley); 18° C., 7 days; growth reduced by at least 90% vs control, OD 405 nm", "experimental": "as §1, §2, §3"}, "Fusarium culmorum": {"tested_on": "Fusarium culmorum", "experiment": "Anti-Fungal Activity in Plant Relevant Molds In Vitro Microtitre Test", "type": "cell-based", "conditions": "Fusarium culmorum (Wheat Head); 18° C., 7 days; growth reduced by at least 90% vs control, OD 405 nm", "experimental": "as §1, §2, §3"}, "Septonia tritici": {"tested_on": "Septonia tritici", "experiment": "Anti-Fungal Activity in Plant Relevant Molds In Vitro Microtitre Test", "type": "cell-based", "conditions": "Septonia tritici (Wheat Leaf); 18° C., 7 days; growth reduced by at least 90% vs control, OD 405 nm", "experimental": "as §1, §2, §3"}, "[1]": {"tested_on": "Colletotrichum lagenarium", "experiment": "Anti-Fungal Activity in Plant Relevant Molds In Vitro Microtitre Test", "type": "cell-based", "conditions": "Colletotrichum lagenarium (Mellons); 18° C., 7 days; growth reduced by at least 90% vs control, OD 405 nm", "experimental": "as §1, §2, §3"}, "Rhizoctonia solani": {"tested_on": "Rhizoctonia solani", "experiment": "Anti-Fungal Activity in Plant Relevant Molds In Vitro Microtitre Test", "type": "cell-based", "conditions": "Rhizoctonia solani (Rice Sheath); 18° C., 7 days; growth reduced by at least 90% vs control, OD 405 nm", "experimental": "as §1, §2, §3"}, "Pyricularia oryzae": {"tested_on": "Pyricularia oryzae", "type": "cell-based", "conditions": "Pyricularia oryzae (Rice); 18° C., 7 days; growth reduced by at least 90% vs control, OD 405 nm"}}}
{"compound": "Cc1scc(-c2ccc(C3CCCCC3)cc2)[n+]1C.[I-]", "note": "[2,3-dimethyl-4(p-cyclohexylphenyl) thiazolium iodide]", "values": [{"measurement": "Acute Anti-inflammatory Activity in Rats ED50", "setting": "male Lewis rats", "value": 0.02, "unit": "mg/rat"}]}
{"compound": "CCOc1ccc(-c2csc(C=Cc3ccc(N(CC)CC)cc3)[n+]2C)cc1.[I-]", "note": "[2-(4′-diethylaminostyryl)-4-(4″-ethoxyphenyl)-3-methyl-thiazolium iodide]", "values": [{"measurement": "Acute Anti-inflammatory Activity in Rats ED50", "setting": "male Lewis rats", "value": 0.001, "unit": "mg/rat"}]}
{"compound": "CCN(CC)c1ccc(C=Cc2scc(-c3ccc(CC(C)C)cc3)[n+]2C)cc1.[I-]", "note": "[2-[2-(4-diethylamino-phenyl)vinyl]-4-(4-isobutyl-phenyl)-3-methyl-thiazolium iodide]", "values": [{"measurement": "Acute Anti-inflammatory Activity in Rats ED50", "setting": "male Lewis rats", "value": 0.0003, "unit": "mg/rat"}]}
{"compound": "CC[n+]1c(-c2ccc(-c3ccccc3)cc2)csc1C=Cc1ccc(N2CCCC2)cc1.[I-]", "note": "[4-(4-biphenyl)-3-ethyl-2-[(4-pyrrolidino)styryl]thiazolium iodide]", "values": [{"measurement": "Acute Anti-inflammatory Activity in Rats ED50", "setting": "male Lewis rats", "value": 0.001, "unit": "mg/rat"}]}
{"compound": "CC(C)Cc1ccc(-c2csc(C=Cc3ccc(N4CCCC4)cc3)[n+]2C)cc1.[I-]", "note": "[4-(4-isobutylphenyl)-3-methyl-2-[2-(4-pyrrolidin-1-yl-phenyl)vinyl]-thiazolium iodide]", "values": [{"measurement": "Acute Anti-inflammatory Activity in Rats ED50", "setting": "male Lewis rats", "value": 0.0004, "unit": "mg/rat"}]}
{"compound": "CCN(CC)c1ccc(/C=C/c2scc(-c3ccc(OC)cc3)[n+]2C)cc1.[I-]", "note": "[Formula III]", "values": [{"measurement": "IC90", "setting": "Phytophthora infestans", "value": 2, "unit": "ppm"}, {"measurement": "IC90", "setting": "Cochliobolus mijabeanus", "value": 2, "unit": "ppm"}, {"measurement": "IC90", "setting": "Botrytis cinerea", "value": 2, "unit": "ppm"}, {"measurement": "IC90", "setting": "Alternaria solani", "value": 31, "unit": "ppm"}, {"measurement": "IC90", "setting": "Pyrenophora teres", "value": 8, "unit": "ppm"}, {"measurement": "IC90", "setting": "Fusarium culmorum", "value": 31, "unit": "ppm"}, {"measurement": "IC90", "setting": "Septonia tritici", "value": 2, "unit": "ppm"}, {"measurement": "IC90", "setting": "[1]", "value": 8, "unit": "ppm"}, {"measurement": "IC90", "setting": "Rhizoctonia solani", "value": 8, "unit": "ppm"}, {"measurement": "IC90", "setting": "Pyricularia oryzae", "value": 8, "unit": "ppm"}]}
{"compound": "CC(C)c1ccc(C(C)C)c(-c2csc(/C=C/c3ccc(N(C)C)cc3)[n+]2C)c1.[I-]", "note": "[Formula IV, E-2-(N,N′-dimethylaminostyryl)-3-methyl-4-(2,5-diisopropylphenyl)thiazolium iodide]", "values": [{"measurement": "IC90", "setting": "Phytophthora infestans", "value": 8, "unit": "ppm"}, {"measurement": "IC90", "setting": "Cochliobolus mijabeanus", "value": 8, "unit": "ppm"}, {"measurement": "IC90", "setting": "Botrytis cinerea", "value": 2, "unit": "ppm"}, {"measurement": "IC90", "setting": "Alternaria solani", "value": 8, "unit": "ppm"}, {"measurement": "IC90", "setting": "Pyrenophora teres", "value": 8, "unit": "ppm"}, {"measurement": "IC90", "setting": "Fusarium culmorum", "value": 125, "unit": "ppm"}, {"measurement": "IC90", "setting": "Septonia tritici", "value": 2, "unit": "ppm"}, {"measurement": "IC90", "setting": "[1]", "value": 8, "unit": "ppm"}, {"measurement": "IC90", "setting": "Rhizoctonia solani", "value": 8, "unit": "ppm"}, {"measurement": "IC90", "setting": "Pyricularia oryzae", "value": 8, "unit": "ppm"}, {"measurement": "Acute Anti-inflammatory Activity in Rats ED50", "setting": "male Lewis rats", "value": 0.0002, "unit": "mg/rat"}]}
{"compound": "Cc1cc(-c2csc(/C=C/c3ccc(N(C)C)cc3)[n+]2C)c(C)c(C)c1C.[I-]", "note": "[Formula V, E-2-(N,N′-dimethylaminostyryl)-3-methyl-4-(2,3,4,5-tetramethylphenyl)thiazolium iodide]", "values": [{"measurement": "IC90", "setting": "Phytophthora infestans", "value": 2, "unit": "ppm"}, {"measurement": "IC90", "setting": "Cochliobolus mijabeanus", "value": 8, "unit": "ppm"}, {"measurement": "IC90", "setting": "Botrytis cinerea", "value": 2, "unit": "ppm"}, {"measurement": "IC90", "setting": "Alternaria solani", "value": 8, "unit": "ppm"}, {"measurement": "IC90", "setting": "Pyrenophora teres", "value": 8, "unit": "ppm"}, {"measurement": "IC90", "setting": "Fusarium culmorum", "value": 31, "unit": "ppm"}, {"measurement": "IC90", "setting": "Septonia tritici", "value": 2, "unit": "ppm"}, {"measurement": "IC90", "setting": "[1]", "value": 8, "unit": "ppm"}, {"measurement": "IC90", "setting": "Rhizoctonia solani", "value": 8, "unit": "ppm"}, {"measurement": "IC90", "setting": "Pyricularia oryzae", "value": 8, "unit": "ppm"}]}
